How the values were obtained:
[1] = Solid stability test (physicochemical and chemical stability of crystals); conditions: open condition at 40° C., 1 month; for Amount of the mass change of the compound 1: HPLC area normalization; for Properties: appearance; for Crystal form change: powder X-ray diffraction
From the text: Test Example 4: Solid Stability Test
The physicochemical stability and chemical stability for the crystals of the compound 1 (crystal forms I to III), the crystals of the methanesulfonic acid salt of the compound 1 (crystal forms I, II and IV), the crystals of the hydrochloride (crystal forms I and III), the crystal form I of the p-toluenesulfonic acid salt, the crystal form I of the sodium salt and the crystal form I of the calcium salt were examined.
Physicochemical stability: Each crystal was stored under open condition at 40° C. The powder X-ray diffraction of the sample was measured at the initial point and 1 month later, and the change in crystal form Was confirmed. The change in properties was also observed at the same time. Chemical stability: Each crystal was stored under open condition at 40° C. The mass of the compound 1 in the sample was measured under the following HPLC measurement conditions at the initial point and 1 month later.
Detector: Ultraviolet and visible absorptiometer/wavelength: 225 nm
Column: L-column 2 ODS, 3 μm, 4.6×150 mm (Chemicals Evaluation and Research Institute)
Column temperature: Constant temperature around 40° C. Flow rate: 1.0 mL/min Mobile phase A: Potassium dihydrogenphosphate and dipotassium hydrogenphosphate aqueous solution adjusted to 10 mmol/L with water Mobile phase B: Acetonitrile Mobile phase ratios: 0 to 30 minutes: mobile phase A/mobile phase B=88/12 30 to 50 minutes: mobile phase A/mobile phase B=88/12 to 25/75 50 to 55 minutes: mobile phase A/mobile phase B=25/75 55 to 55.01 minutes: mobile phase A/mobile phase B=25/75 to 88/12 55.01 to 75 minutes: mobile phase Airmobile phase B=88/12 Amount of injection: 5 μL Sample cooler: 4° C. Dissolution solvent: Mixed solution (mobile phase A/acetonitrile=75/25) Sample solution: Sample was dissolved in dissolution solvent and adjusted to about 1 mg/mL
Excluding the peaks derived from the blank, the peak areas of the compound 1 and an analogous substance were measured by automatic integration, and the mass of the compound 1 was calculated by area normalization method. Further, the amount of the mass change of the compound 1 after the storage was calculated.

[2] = system: TNBS induced colitis model rat; assay: Therapeutic effect in colitis model (suppression of intestinal permeability of FITC); type: in vivo; conditions: 3 mg/kg orally once a day for 3 days, serum FITC, mean
Procedure: Test Example 2 Therapeutic Effect in Colitis Model
(1) TNBS Induced Colitis Model Rat
Thus, the suppressive effect on the intestinal permeability based on oral administration of the test compound was evaluated as an indicator of medicinal efficacy.
SD male rats: 8-week-old SIX (Japan SLC) were used, Under pentobarbital anesthesia, 300 μL of 28 mg/mL TNBS which was adjusted with 50% ethanol was administered at a point 8 cm from the anus in the large intestine to cause inflammation. To the solvent-treated group was administrated 300 μL of 50% ethanol. Animals were fasted for 48 hours prior to administration of TNBS. The test compound (3 mg/kg) prepared with 0.05% methylcellulose solution was orally administered once a day from the next day, and it was administered for a total of 3 days. After administering for 3 clays, 50 mg/kg FITC was orally administered 4 hours after the administration of the test compound. Blood samples were collected from jugular vein under isoflurane anesthesia after 4 hours. The serum was centrifuged, and fluorescence intensity was detected by PHERAstar FSX (BMG Labtech) to measure the concentration of FITC permeating into circulating blood through the mesentery. The suppressive rate on the intestinal permeability of the test compound was calculated based on the value of the test substance-free group as 0 and the value of the TNBS-untreated group as 100.

human PHD2184-418 = target: T1, human PHD2184-418 (Homo sapiens, UniProt Q9GZT9); assay: PHD2 inhibitory test (fluorescence polarization, FITC-labeled HIF-1α556-574); type: binding; conditions: 2 μM 2-oxoglutarate, 37° C. for 60 minutes
T1 construct: containing amino acid residues 184 to 418 of the protein represented by CAC42509; histidine tag (N); made in house; host or cells: E. coli BL21 (DE3), pET-30a (+) vector
T1 sequence (Q9GZT9 184-418): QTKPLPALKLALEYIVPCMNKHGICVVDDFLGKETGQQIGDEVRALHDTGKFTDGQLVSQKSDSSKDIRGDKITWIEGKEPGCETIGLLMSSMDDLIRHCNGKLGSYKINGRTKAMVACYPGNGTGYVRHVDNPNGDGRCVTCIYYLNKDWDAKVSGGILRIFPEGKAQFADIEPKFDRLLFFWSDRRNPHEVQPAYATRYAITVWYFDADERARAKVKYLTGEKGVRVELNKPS
Procedure: Test Example 1 PHD2 Inhibitory Test
(1) Expression and Preparation of Human […]
Human PHD2184-418 is containing amino acid residues 184 to 418 of the protein represented by CAC42509 (GenBank accession ID) was expressed and prepared by the following method.
An expression construct of human PHD2184-418 containing an N-terminal histidine tag was introduced into pET-30a (+) vector, and the sequence was confirmed. This vector was introduced into BL21 (DE3) strain and cultured at 37° C. in LB medium containing antibiotics. After culturing, a cell lysis solution was added to the cells, and then the cells were disrupted and suspended by sonication. The disrupted suspension was centrifuged, and the supernatant was purified by Ni column to give human PHD2184-418.
Human HIF-1α556-574 (FITC-labeled HIF-1α556-574), containing FITC-Ahx at the N-terminal of HIF-1α556-574 containing amino acid residues 556 to 574 (partial peptide) of human HIF-1α, was used as a substrate. Using FITC-labeled HIF-1α556-574, the competitive inhibition between 2-oxoglutarate and the test compound ([…]) was evaluated based on the change in fluorescence polarization of FITC-labeled HIF-1α556-574 by the following method.
An enzyme (human PHD2184-418) and the substrate were diluted with an assay buffer (pH 7.4) containing 10 mM HEPES, 150 mM NaCl, 10 μM MnCl2-4H2O, 2 μM 2-oxoglutarate and 0.05% Tween-20. […]

[3] = Rat PK study: concentration of compound in large intestine tissue and plasma; type: in vivo; conditions: 3 mg/kg oral, non-fasted SD rats
Procedure: Test Example 3 Concentration of Compound in Large Intestine Tissue
The test compound (3 mg/kg/5 mL) prepared with 0.05% methylcellulose was orally administered to non-fasted rats (SD, 8-week-old, male, T SLC). Blood samples were collected from jugular vein 0.25, 0.5, 1, 2, 4, 6 and […] hours after the administration. Laparotomy was performed under isoflurane anesthesia, and the large intestine was isolated. The collected distal large intestine (about 5 cm) was cut open, and then the large intestine extracted was washed with saline on a dish. After washing, the large intestine was minced with small scissors. About 150 mg thereof was moved to a tube. To the tube was added 100 μL of saline, and the mixture was homogenized using shake master (1000 rpm×30 minutes). Samples were prepared by the addition with quadruple volume of saline as the final volume. The concentrations of the test compound in the large intestine tissue and the plasma were measured through a quantitative analysis using liquid chromatography-mass spectrometry (LC/MS).
Cmax: maximum plasma concentration of the test compound in the case of oral administration (ng/mL) AUC: area under the plasma test compound concentration-time curve (ng*min/mL) Plasma: plasma test compound concentration after 8 hours (ng/mL) Colon: concentration of the test compound in the large intestine tissue after hours (ng/g) C/P: ratio of the above Colon and Plasma

Row | Amount of the mass change of the compound 1 [1] | Properties [1] | Crystal form change [1] | IC50 (human PHD2184-418; read-out: IC50 (human PHD2 binding inhibitory activity)) | Colon: concentration of the test compound in the large intestine tissue ([3]; distal large intestine) | Kp ([3]; male, rat, large intestine tissue / plasma, read-out: C/P: ratio of Colon and Plasma) | concentration at 8 h ([3]; male, rat, plasma, 8 hours, read-out: Plasma: plasma test compound concentration after 8 hours) | AUC ([3]; male, rat, plasma, read-out: AUC: area under the plasma test compound concentration-time curve (converted)) | Cmax ([3]; male, rat, plasma, read-out: Cmax: maximum plasma concentration of the test compound) | Structure (SMILES) | Inhibition (%): suppressive rate on the intestinal permeability [2] | Inhibition (%): suppressive rate on the intestinal permeability ([2]; listed as compound 1) | IC50 (human PHD2 binding inhibitory activity) (human PHD2184-418) | C/P: ratio of Colon and Plasma [3]
1 | −0.04% | White powder, no change | No change | – | – | – | – | – | – | Cn1c(C(=O)O)cnc1CN1CC[C@H](n2c(=O)n(-c3ccc(-c4ccc(C(=O)O)cc4)nc3)c3cccnc32)C1 [Crystal form III of the compound 1] | – | – | – | –
2 | −0.03% | White powder, no change | No change | – | – | – | – | – | – | Cn1c(C(=O)O)cnc1CN1CC[C@H](n2c(=O)n(-c3ccc(-c4ccc(C(=O)O)cc4)nc3)c3cccnc32)C1 [Crystal form II of the compound 1] | – | – | – | –
3 | No change | White powder, no change | No change | – | – | – | – | – | – | Cn1c(C(=O)O)cnc1CN1CC[C@H](n2c(=O)n(-c3ccc(-c4ccc(C(=O)O)cc4)nc3)c3cccnc32)C1 [Crystal form I of the compound 1] | – | – | – | –
4 | – | – | – | 180 nM | 164 ng/g | > 164 | < 1 ng/mL | 1.95 ng·h/mL | 1 ng/mL | Cn1c(C(=O)O)cnc1CN1CC[C@H](n2c(=O)n(-c3ccc(-c4ccc(C(=O)O)cc4)nc3)c3cccnc32)C1 [Compound 1, 2-{[(3S)-3-{1-[6-(4-Carboxyphenyl)pyridin-3-yl]-2-oxo-2,3-dihydro-1H-imidazo[4,5-b]pyridin-3-yl}pyrrolidin-1-yl]methyl}-1-methyl-1H-imidazole-5-carboxylic Acid] | 101% | suppressed | inhibited binding between PHD2 and HIF-1α | higher concentration in the large intestine tissue than the concentration in the plasma

— patent US20230167108A1, “CRYSTAL OF IMIDAZOPYRIDINONE COMPOUND OR SALT THEREOF” (Kissei Pharmaceutical Co., Ltd., priority 2020, published 2023)
